Each structure is given as a SMILES string. Bounds are passed on as bounds.

The compound `Cc1cnc(N)c(=O)n1C` returned a melting point of 217 to 219 °C.
The same measure for `CCOC=Nc1sccc1C#N`: 38 °C; for `CC#CC(O)(C(=O)OC)c1ccccc1` (stereo not drawn): 64 to 65 °C.
The same measure for `COc1ccc2c(N)c([N+](=O)[O-])sc2c1`: more than 250 °C.
`CCOC(=O)C(Sc1ccc(O)cc1)c1ccc(Br)cc1` (stereo not drawn) had a melting point of 55.6 °C.
The same measure for `O=C(O)c1ccccc1C(=O)c1ccc(N2CCCC2)cc1O`: 190 to 192 °C; for `Nc1ccccc1NC(=O)c1cc2cc(OCCO)ccc2[nH]1`: 222 to 223 °C.
In the case of `COc1ccc(CN(C)CCCCc2ccc(NC(=O)c3cccc4c(=O)c5ccccc5sc34)cc2)cc1OC` it was 156 °C.
The same measure for `CCC1CC(N)=NN1c1ccccc1` (stereo not drawn): 123 to 125 °C; for `COc1ccc(-n2c(=O)c(C(=O)O)nc3c(Cl)cccc32)cc1`: 198 to 200 °C; for `CC(C)(C)OC(=O)NCCc1cccc(OCCC2Oc3ccccc3N(Cc3cccc(Cl)c3)C2=O)c1` (stereo not drawn): 107 to 108 °C.
In turn, `COc1nc(C)nc(NC(=O)NS(=O)(=O)c2c(C)cccc2OCCF)n1` showed a melting point of 161 °C.
The same measure for `CC(=O)Nc1cccc(/C=C/C(=O)O)c1C`: 265 to 267 °C.
In the case of `COc1ccc(C(=O)c2ccc(Sc3ccc(Cl)cc3)cc2)cc1OC` it was 118 to 120 °C; in that of `Cc1cccc(C(=O)NO)c1N(C)S(=O)(=O)c1ccc(OCCCCNC(=O)c2ccc3c(c2)OCO3)cc1`, 117 to 121 °C; in that of `O=C(O)CCc1cn(Cc2ccc(OCc3coc(-c4ccccc4)n3)cc2)nc1-c1cccs1`, 145 to 146 °C.
The same measure for `COC(=O)[C@H]1[C@@H]2CC[C@@](NC(=O)OC(C)(C)C)(C(=O)OC)[C@@H]21`: 193 to 194 °C.
Compound `Brc1c(OCc2ccc3ccccc3n2)ccc2ccccc12` displayed a melting point of 130 to 132 °C.
The same measure for `CCc1cc(C(=O)OC(C)C)c2cc(C(C)C)cccc1-2`: 69 to 71 °C; for `COc1ccc(C=O)c2cc(C#N)oc12`: 170 to 178 °C; for `O=C(c1cccc(Cl)c1)N1CCc2cc(S(=O)(=O)N3CCN(c4cccc(Cl)c4)CC3)ccc21`: 221 to 222 °C.
The same measure for `OC(c1nnn[nH]1)c1ccccc1Cl` (racemic): 130 to 132 °C.
In turn, `CC(OCc1cc2cc(C(F)(F)F)ccc2n1S(=O)(=O)c1ccccc1)C(=O)O` (stereo not drawn) gave a melting point of 72 to 74 °C.
The same measure for `O=C(Nc1ccc(C(=O)Nc2ccc(Cl)cc2)c(O)c1)c1ccc(-c2nc3cc(Cl)c(Cl)cc3[nH]2)cc1`: more than 220 °C.
The same measure for `Nc1c(Cl)ccc2c1NCCC2=O`: 105 to 109 °C.
In the case of `COc1ccc(N(CCCC(=O)O)C(=O)C(C)N(C(C)=O)c2ccc(OC)cc2)cc1` (stereo not drawn) it was 155 to 157 °C; in that of `CCOc1nc2cccc(C(=O)OC)c2n1Cc1ccc(-c2ccccc2-c2nc(=O)s[nH]2)cc1`, 211 to 212 °C.
As to `O=C(C=Cc1ccc(O)cc1)N1CCc2c([nH]c3ccccc23)C1c1ccc2c(c1)CCO2` (stereo not drawn), the melting point was determined as 189 °C.
In the case of `CC1(C#CC2(C(F)(F)F)c3cc(Cl)ccc3NC(=O)N2C2CC2)CC1` (stereo not drawn) it was 218 to 220 °C.
In the case of `COc1cc(CC(=O)NCCCc2ccc(C)c(C)c2)ccc1OCCNCCN` it was 119 to 120 °C; in that of `COc1ccc(-c2ccc(C=C3SC(=O)NC3=O)cc2)cc1C12CC3CC(CC(C3)C1)C2`, 304 to 306 °C.
The same measure for `COc1ccc2c(c1)C(c1ccncc1)=Nc1cc(Cl)ccc1O2`: 158 to 160 °C; for `COc1cc(C2C3=C(COC3=O)N(Cc3ccc([N+](=O)[O-])cc3)c3cc4c(cc32)OCO4)cc(OC)c1O` (stereo not drawn): 193 °C.
`OC(=S)CCCc1nn(-c2ccccc2)c2c1CCCC2` gave a melting point of 105 to 106 °C.
In the case of `Fc1ccc(-c2[nH]cc(C3CCN4CCCC4C3)c2-c2ccncc2)cc1` (stereo not drawn) it was 263 to 265 °C.
The same measure for `CNC(=O)N(C(=O)Nc1ccccc1)c1ccccc1`: 145 to 147 °C; for `CN(C)C(=S)Nc1ccc(NNC=O)cc1`: 187 to 189 °C; for `COc1ccc2c3c(c(=O)oc2c1)CN(Cc1ccc(C)cc1)CC3`: 147 to 149 °C.
The same measure for `CS(=O)(=O)Nc1cccc(Nc2nc(NCc3cccnc3)c3nc[nH]c3n2)c1`: 144 to 147 °C; for `CC(C)(C)OC(=O)Nc1ccc(C#Cc2ccccc2)cc1N`: 177 to 178 °C.
In turn, `O=C(NN1CCCCC1)c1nn(-c2ccccc2-c2ccccc2Cl)c2c1C1CC3CC(C1)CC2C3` displayed a melting point of 206 °C.
The same measure for `CCCCS(=O)(=O)NC(=O)/C=C/c1c(C)nn(C)c1-n1ccc2cc(Cl)cnc21`: 245 to 248 °C; for `COC1(c2cccc(O)c2)OOC12C1CC3CC(C1)CC2C3` (stereo not drawn): 135 °C; for `COc1ccc(C2(CCO)C=CC=CN2)cc1OC1CCCC1` (stereo not drawn): 94 to 96 °C.
In the case of `C=C(C)Cc1cc(C=O)cc(OCC)c1O` it was 85 to 86 °C; in that of `O=C(O)CCCNC(=O)n1cc(F)c(=O)[nH]c1=O`, 146 to 147 °C.
In the case of `CC(C)(C)OC(=O)CN1C(=O)[C@H](N)CCc2ccccc21` it was 113 to 115 °C.
`CN(C)C=NC(=O)c1ccc(C(=O)N2Cc3cccn3Cc3ccccc32)cc1` gave a melting point of 232 to 234 °C.
In turn, `CCCC1=C(C#N)C(c2cccc3nsnc23)c2c[nH]nc2N1` (stereo not drawn) displayed a melting point of 195 °C.
The same measure for `N=C(N)c1ccc(C(=O)N2CCCC2CC(=O)NCCC(=O)O)cc1` (stereo not drawn): more than 250 °C; for `CCCn1c(=O)c2ccc(NC(=O)CC3CCCC3)cc2n1Cc1ccc(C(=O)OC)cc1OC`: 74.5 to 77 °C; for `O=C(O)CC(C(=O)O)C(CSc1nc2ccccc2s1)C(=O)O` (stereo not drawn): 188 to 190 °C.
The same measure for `CC(C)Oc1c(-c2ccc(S(C)(=O)=O)cc2)cnn(-c2ccc(F)cc2)c1=O`: 135 to 137 °C; for `O=C(NNC1NS(=O)(=O)c2ccccc21)Oc1ccccc1` (stereo not drawn): 216 °C; for `CN1C(=O)C(C)(C)N=C(c2ccccc2F)c2cc(NC(=O)C(C)(C)N)ccc21`: 250 °C.
The same measure for `CC(C)(C)c1ccc(/C=N/OCc2ccc(C(=O)O)c(Br)c2)cc1`: 162 to 163 °C; for `CC(C(=O)NCC(=O)OCc1ccccc1)N1CCN(CC(=O)OC(C)(C)C)CCN(CC(=O)OC(C)(C)C)CCN(CC(=O)OC(C)(C)C)CC1` (stereo not drawn): 116 to 117 °C.
`COC(=CCl)C1(O)CCC2C3CCC4=CC(=O)CCC4(C)C3=CCC21C` (stereo not drawn) yielded a melting point of 197 to 199 °C.
For the compound `C[C@H](CS(C)(=O)=O)Nc1n[nH]c2nc(Oc3ccc(F)cc3F)ncc12`, the melting point fell in the range of 178 to 179 °C.
In the case of `O=c1[nH]c2cc(-n3cnc4ccccc43)c([N+](=O)[O-])cc2[nH]c1=O` it was more than 300 °C.
The same measure for `CC(=O)c1cc(F)c(N)c(C#N)c1F`: 182 to 184 °C.
The same measure for `COc1ccc(CCNCC(O)c2ccccc2)cc1OC` (stereo not drawn): 92 to 93 °C; for `O=C(NC(Cc1cccc(C(F)(F)F)c1)C(=O)N1CCSC1)c1cc2cc(Cl)ccc2[nH]1` (stereo not drawn): 205 to 207 °C.
The compound `Cc1oc2nc3c(c(NC(=O)C(C)C)c2c1C)CCCC3` registered a melting point of 245 to 246 °C.
The same measure for `BrCCc1ccc([Si](c2ccccc2)(c2ccccc2)c2ccc(CCBr)cc2)cc1`: 220 °C.
In the case of `Cc1cccc(NC(=O)NCC(=O)N(CC(=O)OC(C)(C)C)c2ccccc2C(=O)N2CCCc3ccccc32)c1` it was 160 °C; in that of `COC(=O)Cn1c(C(=O)Nc2nc(-c3cc(OC)c(Cl)cc3OC)c(CCC3CCCCC3)s2)c(C)c2cc(C)ccc21`, 166 to 168 °C; in that of `C[C@H]1C[C@@H](Nc2ccccc2)c2ccccc2N1C(=O)c1ccccn1` (relative stereo), 157 °C.
In the case of `CCOc1ccc(-n2nc(C(F)(F)F)nc2-c2ccc(S(C)(=O)=O)cc2)cc1`, the melting point worked out at 112 °C.
The same measure for `O=C(Nc1cccc2c1C1CCCCN1C2=O)Nc1nc(Cl)c(Cl)c(Cl)c1Cl` (stereo not drawn): 246 °C; for `CC(C)(C)OC(=O)N1C[C@@H](Oc2ccc(N)cc2)C[C@@H]1C(=O)Nc1cc(C(C)(C)C)c(O)c(C(C)(C)C)c1`: 104 to 106 °C; for `NC1=C(C(=O)c2ccc(Cl)cc2Cl)OC2N=C(O)C=CC12` (stereo not drawn): more than 305 °C.
`CCn1c(Cl)c(C=NO)c(=O)n(CC)c1=O` registered a melting point of 92 to 94 °C.
In the case of `O=[N+]([O-])c1cc(CO)cc([N+](=O)[O-])c1` it was 89 °C; in that of `CC(=O)OC1CSC(O)C(OC(C)=O)C1OC(C)=O` (stereo not drawn), 115 °C; in that of `Nc1cc(Cl)nc(Cl)c1[N+](=O)[O-]`, 136 to 138 °C.
For `COc1ccc(OC)c2c1C[C@](O)(CC#N)CC2=O`, the melting point lay within 160 to 162 °C.
`C=Cc1cc(-c2ccc(S(C)(=O)=O)cc2)n(CC2CCCCC2)n1` displayed a melting point of 136 to 138 °C.
The same measure for `COc1ccc(CC(=O)O)cc1C12CC3CC(CC(C3)C1)C2`: 78 to 79 °C; for `Cc1cc2occc2c(Cl)n1`: 64.5 to 66 °C.
In the case of `CCOC(=O)NC(=O)N1CC1C#N` (stereo not drawn) it was 108 to 110 °C.
`COc1cc(-c2nc(NC(=O)c3c(C)c4cc(C)ccc4n3CC(=O)O)sc2CCC2CCCCC2)c(OC)cc1C`: the melting point was in the range of 150 to 152 °C.
In the case of `COC(=O)c1coc2cc(Oc3cc(COCc4ccccc4)ncn3)ccc12` it was 85 to 86 °C; in that of `COc1ccccc1C(=Cc1ccccc1[N+](=O)[O-])C(=O)O`, 217 to 219 °C; in that of `C=Cn1cc(C(N)=O)c([N+](=O)[O-])n1`, 150 to 152 °C.
The same measure for `O=C1c2c(n3c4c(cccc24)OCC3c2ccccc2)CCC1(Cl)Cl` (stereo not drawn): 104 °C.
In the case of `O=C(O)c1cc2cc(-c3ccc(O)cc3)ccc2o1` it was 297 to 300 °C; in that of `O=C(O)COc1cc(Cl)ccc1C(=O)NCc1ccc(Cl)cc1`, 184 to 186 °C.

The term melting point denotes the temperature, or range, at which the solid turns liquid.

The record behind these values is a melting point compilation (Tetko et al.; mined from patent text by program, amines drawn as free bases though some values may be those of a salt).
